Consider eleven compounds from ChEMBL document CHEMBL1201862, “PubChem BioAssay data set” (2004).

Test systems include OVCAR-8; MOLT-4; NCI-H23; NCI/ADR-RES; UACC-257; Hs-578T; KM12; HL-60; NCI-H522; MDA-N; SK-MEL-2; EKVX; A498; SR; HOP-62; OVCAR-3; K562; PC-3; HOP-92.
Holding throughout (assay): NCI anticancer screen, dose series, 48 h

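Where inhibition never reached the appropriate level, the endpoint shown equals the highest concentration tested. Otherwise, values were interpolated linearly from a five-concentration, 48-hour dose response in 96-well plates. Abbreviation: GI50, concentration required for 50% inhibition of growth.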 Activity calls are given as the source filed them. Rule as the data show it: active = GI50 up to about 1.1 µM and inactive = higher. Some results are limits rather than exact numbers.

On to `COc1cc2c3c(c1)c1cc(OC)c(OC)cc1c[n+]3CC2`, for which the GI50 was 4.32 µM (inactive) in the assay with OVCAR-8; 2 µM (inactive) in the assay on MOLT-4; 7.29 µM (inactive) in the assay on NCI-H23; > 50 µM (inactive) in the assay with NCI/ADR-RES; 18.1 µM (inactive) in the assay on UACC-257; 3.1 µM (inactive) in the assay on Hs-578T. The GI50 in the assay with KM12 is 3.77 µM (inactive); in the assay on HL-60, > 50 µM (inactive); with NCI-H522 it was 0.927 µM (active); with MDA-N it was 24.8 µM (inactive); in the assay with SK-MEL-2 it was 31.8 µM (inactive); with EKVX, 8.51 µM (inactive). In addition, the GI50 in the assay on A498 was > 50 µM (inactive); with SR it was 21.8 µM (inactive); in the assay with HOP-62 it was 5.73 µM (inactive); with OVCAR-3, 12.5 µM (inactive); in the assay with K562, 10 µM (inactive); in the assay on PC-3, 25.8 µM (inactive).

For `Cc1ccc2nc3n(c2c1)C(c1c(F)cccc1F)SC3` (stereo unspecified), the GI50 in the assay on MOLT-4 is 63.8 µM (inactive); with NCI-H23 it was > 100 µM (inactive); with NCI/ADR-RES, > 100 µM (inactive); in the assay on UACC-257, > 100 µM (inactive); in the assay with Hs-578T, > 100 µM (inactive); with KM12, > 100 µM (inactive). The GI50 was 71.6 µM (inactive) in the assay with HL-60; 55.5 µM (inactive) with NCI-H522; > 100 µM (inactive) with MDA-N; > 100 µM (inactive) in the assay with SK-MEL-2; > 100 µM (inactive) in the assay on A498; > 100 µM (inactive) in the assay on SR. For the same compound, the GI50 was > 100 µM (inactive) in the assay on HOP-62; 49.3 µM (inactive) with HOP-92; > 100 µM (inactive) with OVCAR-3; > 100 µM (inactive) with K562; > 100 µM (inactive) with PC-3.

Consider `C=C(CN)CO[Si](C)(C)C(C)(C)C`, for which the GI50 in the assay with OVCAR-8, in the assay on MOLT-4, in the assay on NCI-H23, with NCI/ADR-RES, in the assay with UACC-257 and with Hs-578T was > 100 µM (inactive) throughout. Moreover, the GI50 with KM12, in the assay with HL-60, in the assay on NCI-H522, in the assay on MDA-N, with SK-MEL-2 and with EKVX was > 100 µM (inactive) each time. Moreover, the GI50 in the assay on A498, with SR, with HOP-62, in the assay with OVCAR-3, in the assay on K562 and in the assay on PC-3 was > 100 µM (inactive) throughout.

On to `O=c1cc(CNC2CC3CCC2C3)[nH]c(=O)[nH]1` (stereo unspecified), for which the GI50 in the assay on OVCAR-8, in the assay on MOLT-4, in the assay on NCI-H23, in the assay on NCI/ADR-RES, in the assay with UACC-257 and in the assay on Hs-578T was > 100 µM (inactive) in each case. Moreover, the GI50 in the assay on KM12, with HL-60, in the assay with NCI-H522, in the assay on MDA-N, in the assay on SK-MEL-2 and with EKVX was > 100 µM (inactive) in each case. In addition, the GI50 with A498, in the assay with SR, in the assay on HOP-62, in the assay on OVCAR-3, with K562 and with PC-3 was > 100 µM (inactive) throughout.

As for `COC(=O)C(Cc1ccccc1)NP(=O)(O)OCC1OC(n2cc(I)c(=O)[nH]c2=O)CC1O` (stereo unspecified), the GI50 with OVCAR-8, with MOLT-4, in the assay on NCI-H23, with NCI/ADR-RES, in the assay on UACC-257 and in the assay with Hs-578T was > 100 µM (inactive) in each case. Moreover, the GI50 with KM12, in the assay on HL-60, in the assay on NCI-H522, in the assay on MDA-N, with EKVX and in the assay with A498 was > 100 µM (inactive) each time. Moreover, the GI50 in the assay on SR, in the assay with HOP-62, in the assay with HOP-92, in the assay with OVCAR-3, in the assay on K562 and in the assay with PC-3 was > 100 µM (inactive) throughout.

As for `[O-]/[N+](=N\c1ccccc1CO)c1ccccc1CO`, the GI50 in the assay with OVCAR-8, in the assay with MOLT-4, with NCI-H23, with NCI/ADR-RES, in the assay with UACC-257 and in the assay with Hs-578T was > 100 µM (inactive) in each case. The GI50 in the assay on KM12, in the assay on HL-60, with NCI-H522, in the assay with MDA-N, in the assay with SK-MEL-2 and with EKVX was > 100 µM (inactive) in each case. Also, the GI50 with A498, in the assay on SR, in the assay on OVCAR-3, in the assay with K562 and in the assay on PC-3 was > 100 µM (inactive) throughout.

`CC1=CC(C)(C)[C@H]2O[C@@]3(O)C[C@]4(C)[C@H]5C[C@@](C(C)C)(O[C@H]4c4ccoc4)O[C@H]4[C@]5(C3)O[C@@]1(O)[C@]24O`: the GI50 in the assay on OVCAR-8 was > 100 µM (inactive); with MOLT-4, > 100 µM (inactive); in the assay on NCI-H23 it was > 100 µM (inactive); with NCI/ADR-RES, > 100 µM (inactive); with UACC-257, > 100 µM (inactive); in the assay on Hs-578T, 18.7 µM (inactive). The GI50 in the assay on KM12 was > 100 µM (inactive); in the assay on HL-60, > 100 µM (inactive); in the assay on NCI-H522 it was 5.26 µM (inactive); in the assay on MDA-N it was > 100 µM (inactive); in the assay with SK-MEL-2, > 100 µM (inactive); with EKVX, > 100 µM (inactive). Also, the GI50 in the assay on SR is > 100 µM (inactive); in the assay on HOP-62 it was 23.5 µM (inactive); in the assay with HOP-92, 83.8 µM (inactive); with OVCAR-3, > 100 µM (inactive); in the assay on K562, > 100 µM (inactive); in the assay with PC-3, > 100 µM (inactive).

For the compound `CC(C)(C)C1CC[C@H](O)[C@H]([C@H](O)CC2CC(=O)N(c3ccccc3)C(=O)C2)C1` (stereo partly specified), the GI50 with OVCAR-8 is > 100 µM (inactive); in the assay on MOLT-4, 99.3 µM (inactive); in the assay with NCI-H23, 91.6 µM (inactive); with NCI/ADR-RES, > 100 µM (inactive); with UACC-257, > 100 µM (inactive); with Hs-578T, > 100 µM (inactive). For the same compound, the GI50 with KM12, with HL-60, with NCI-H522, in the assay on MDA-N, in the assay on EKVX and with A498 was > 100 µM (inactive) each time. Further, the GI50 with SR is > 100 µM (inactive); in the assay with HOP-62 it was 74.6 µM (inactive); in the assay with HOP-92, 36.1 µM (inactive); in the assay with OVCAR-3, > 100 µM (inactive); in the assay on K562, > 100 µM (inactive); in the assay with PC-3 it was > 100 µM (inactive).

On to `COc1ccc(S(=O)(=O)Nc2ccc(-c3csc(N4C(=O)/C(=C/C=C\c5ccccc5)N=C4c4ccccc4)n3)cc2)cc1Cl`, for which the GI50 was 23.2 µM (inactive) in the assay with OVCAR-8; 22.8 µM (inactive) in the assay on MOLT-4; 18.9 µM (inactive) with NCI-H23; 28.7 µM (inactive) in the assay on NCI/ADR-RES; 33 µM (inactive) with UACC-257; 29.9 µM (inactive) with Hs-578T. Further, the GI50 in the assay with KM12 was 29 µM (inactive); in the assay with HL-60, 14 µM (inactive); in the assay on NCI-H522, 18.5 µM (inactive); with MDA-N it was 31.3 µM (inactive); in the assay on SK-MEL-2, 22.6 µM (inactive); in the assay on A498 it was 22.5 µM (inactive). Also, the GI50 is 31.8 µM (inactive) in the assay with SR; 31.3 µM (inactive) with HOP-62; 16.6 µM (inactive) in the assay with HOP-92; 26.7 µM (inactive) with OVCAR-3; 35.2 µM (inactive) with K562; 31.3 µM (inactive) in the assay on PC-3.

As to `Nc1nnc(-c2ccco2)c(-c2ccco2)n1`, the GI50 with OVCAR-8, in the assay with MOLT-4, in the assay with NCI-H23, with NCI/ADR-RES, with UACC-257 and in the assay with Hs-578T was > 100 µM (inactive) each time. Moreover, the GI50 in the assay on KM12, in the assay with HL-60, in the assay with NCI-H522, with MDA-N, in the assay with SK-MEL-2 and in the assay with EKVX was > 100 µM (inactive) each time. Further, the GI50 in the assay with A498, in the assay on SR, with HOP-92, with OVCAR-3, in the assay on K562 and in the assay with PC-3 was > 100 µM (inactive) throughout.

For `O=[Se](O)O`, the GI50 in the assay with OVCAR-8 is 2.88 µM (inactive); in the assay with MOLT-4 it was > 20.1 µM (inactive); in the assay on NCI-H23, 3.72 µM (inactive); with NCI/ADR-RES, 4.57 µM (inactive); in the assay on UACC-257 it was 12.6 µM (inactive); with Hs-578T, 0.67 µM (active). Also, the GI50 with KM12 was 1.63 µM (inactive); in the assay with HL-60 it was 10.4 µM (inactive); in the assay with NCI-H522, 12.2 µM (inactive); with MDA-N it was 2.24 µM (inactive); with SK-MEL-2, 2.6 µM (inactive); with EKVX it was 2.11 µM (inactive). The GI50 in the assay on A498 is 19 µM (inactive); with SR it was 10 µM (inactive); in the assay on HOP-62, 0.577 µM (active); in the assay with OVCAR-3, 4.16 µM (inactive); with K562, > 28.2 µM (inactive); in the assay on PC-3, 1.1 µM (active).
